Patent US20260191815A1, “THIOACRYLAMIDE DERIVATIVES FOR USE IN THE PREVENTION OR TREATMENT OF LIVER FIBROSIS” (CMR CUREDIAB METABOLIC RESEARCH GMBH, priority 2022, published 2026)

How the values were obtained:
[1] = tested on: interleukin-6 (IL-6) secretion by LX2 cells; experiment: Olink Inflammation immunoassay of LX2 supernatants: IL-6; assay type: cell-based, human; conditions: for amount of secreted IL-6 after combined treatment with TGF-β1: 10 μM + 5 ng/ml TGF-β1, LX2 cells
Protocol: The human hepatic stellate cell line LX2 was purchased from Merck. The cells were used up to passage ten and incubated under sterile conditions at 37° C. and 5% CO2. The cells were cultivated in medium containing Dulbecco's Modified Eagle's Medium with 4.5 g/l glucose (ThermoFisher), 4 mmol/l glutamine (ThermoFisher), 2% fetal bovine serum (FBS) (Merck), 100 U/ml penicillin and 100 μg/ml streptomycin (Merck). After 2 days, LX2 cells were starved for FBS for 24 h and then pretreated with 10 μM HK1 (Taros Chemicals GmbH & Co. KG) or 10 μM HK3 (Taros Chemicals GmbH & Co. KG) for 30 min. Subsequently, 5 ng/ml recombinant TGF-β1 (R&D Systems, Minneapolis, MN, USA) was added to the hepatic stellate cell cultures for 24 h. LX2 cells were also incubated with 5 ng/ml TGF-β1 alone as positive control for the hepatic stellate cell activation. Recombinant TGF-β1 was dissolved in sterile 4 mmol/l HCl (Merck) containing 0.1% bovine serum albumin (Roth Karlsruhe, Germany) as carrier protein. HK1 and HK3 were dissolved in sterile dimethyl sulfoxide (DMSO) (Sigma-Aldrich, Munich, Germany). Stimulations with 10 μM HK1, 10 μM HK3 and the corresponding vehicles (HCl and DMSO with or without HCl) alone for 24 h were also included as treatments.
LX2 cells were cultured and treated as described in Example 1. After the incubation time, the supernatants of LX2 cells were collected, centrifuged for 10 min at 2000×g at 4° C. and transferred to new tubes to measure 92 proteins in the cell culture supernatants simultaneously using the Olink Inflammation multiplex immunoassay (Olink proteomics, Uppsala, Sweden). This panel covers 92 proteins, including pro- and anti-inflammatory cytokines, growth factors, chemokines and factors involved in biological processes such as apoptosis, inflammatory and immune response, cell adhesion, chemotaxis, or fibrosis. This protein quantification method is based on a proximity extension assay technology, which combines a dual-recognition immunoassay using two matched antibodies labelled with DNA oligonucleotides, with a polymerase chain reaction (PCR) amplification and a microfluidic quantitative real-time PCR as readout. The biomarker concentrations are given as normalized protein expression (NPX) values, which were generated from the threshold cycle values from the qPCR, and represent an arbitrary unit on a log 2 scale.
Differences were analysed by one-way ANOVA followed by the Tukey method as correction for multiple testing.

[2] = tested on: 3D primary human hepatocyte (PHH) spheroid NASH model; experiment: Viability (ATP, CellTiter-Glo) of 3D PHH:NPC spheroids; assay type: cell-based; conditions: 0.1 μM to 10 μM, up to 2 weeks
Protocol: Experiments were conducted using HepaPredict's (HepaPredict AB, Sweden) 3D primary human hepatocyte (PHH) spheroid NASH model (e.g. as published in Bell et al. Sci Rep. 2016 May 4; 6:25187. doi: 10.1038/srep25187).
Cryopreserved primary human hepatocytes were obtained from BioIVT (USA) and nonparenchymal cells (NPC) from LifeNetHealth (USA). After thawing, PHH-NPC cocultures were seeded in a multi-well 96-well Elplasia plate (Corning) in William's E medium containing 11 mM glucose, 10 μg/mL (control) or 10 mg/mL insulin (NASH), 100 nM dexamethasone, 5.5 mg/L transferrin, 6.7 μg/L selenite, 2 mM L-glutamine, 1 U/mL penicillin, 0.1 mg/mL streptomycin, and 10% fetal bovine serum (FBS). […]
After spheroid formation, cells were exposed to up to five different concentrations of the candidate molecules HK1 or HK3 (0.1 μM, 0.3 μM, 1 μM, 3 μM, and 10 μM) with or without FFA in the culture medium. […] All endpoints were evaluated after 14 days of exposure. […]
Viability was evaluated by ATP quantification using the CellTiter-Glo Luminescent Cell Viability Assay (Promega) according to the manufacturer's instructions. […] Subsequently, luminescence signals were measured using a SpectraMax iD5 multi-mode microplate reader (Molecular Devices). Viability was evaluated after up to two weeks of exposure and values are plotted as relative to vehicle (DMSO) controls with or without FFA. […]

Row | SMILES | attenuation of protein content of IL-6 compared to TGF-treated LX2 cells ([1]; 10 μM + 5 ng/ml TGF-β1) [%] | amount of secreted IL-6 after combined treatment with TGF-β1 [1] | viability of the spheroids (ATP) relative to vehicle (DMSO) [2]
1 | Cc1cc(NC(=S)/C(C#N)=C(\O)C2CC2)ccc1F [HK1, 2-Cyano-3-cyclopropyl-N-(4-fluoro-3-methyl-phenyl)-3-hydroxy-thioacrylamide] | 59 | downregulated | did not affect
2 | Cc1cc(NC(=S)/C(C#N)=C(\O)C2CC2)ccc1[N+](=O)[O-] [HK3, 2-Cyano-3-cyclopropyl-3-hydroxy-N-(3-methyl-4-nitro-phenyl)-thioacrylamide] | – | downregulated | did not affect
